According to PubChem BioAssay (NCI):
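Results reflect a 48-hour exposure of cells in 96-well plates to compound at five concentrations. GI50 is the concentration that inhibits growth by half. TGI marks complete inhibition of growth.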

Assays:
Assay in all cases: NCI tumour cell line growth inhibition, 48 h
786-0 renal = test system: 786-0 renal
A498 renal = test system: A498 renal
A549 NSCLC = test system: A549 NSCLC
ACHN renal = test system: ACHN renal
BT-549 breast = test system: BT-549 breast
CAKI-1 renal = test system: CAKI-1 renal
CCRF-CEM leukemia = test system: CCRF-CEM leukemia
COLO 205 colon = test system: COLO 205 colon
DU-145 prostate = test system: DU-145 prostate
EKVX NSCLC = test system: EKVX NSCLC
HCC-2998 colon = test system: HCC-2998 colon
HCT-116 colon = test system: HCT-116 colon
HCT-15 colon = test system: HCT-15 colon
HL-60(TB) leukemia = test system: HL-60(TB) leukemia
HOP-62 NSCLC = test system: HOP-62 NSCLC
HOP-92 NSCLC = test system: HOP-92 NSCLC
HS 578T breast = test system: HS 578T breast
HT29 colon = test system: HT29 colon
IGROV1 ovarian = test system: IGROV1 ovarian
KM12 colon = test system: KM12 colon
LOX IMVI melanoma = test system: LOX IMVI melanoma
M14 melanoma = test system: M14 melanoma
MALME-3M melanoma = test system: MALME-3M melanoma
MCF7 breast = test system: MCF7 breast
MDA-MB-231 breast = test system: MDA-MB-231 breast
MDA-MB-435 = test system: MDA-MB-435
MOLT-4 leukemia = test system: MOLT-4 leukemia
NCI-H226 lung = test system: NCI-H226 lung
NCI-H23 lung = test system: NCI-H23 lung
NCI-H460 lung = test system: NCI-H460 lung
NCI-H522 lung = test system: NCI-H522 lung
NCI/ADR-RES ovarian = test system: NCI/ADR-RES ovarian
OVCAR-3 ovarian = test system: OVCAR-3 ovarian
OVCAR-4 ovarian = test system: OVCAR-4 ovarian
OVCAR-5 ovarian = test system: OVCAR-5 ovarian
OVCAR-8 ovarian = test system: OVCAR-8 ovarian
PC-3 prostate = test system: PC-3 prostate
RPMI-8226 leukemia = test system: RPMI-8226 leukemia
RXF 393 renal = test system: RXF 393 renal
SF-268 CNS = test system: SF-268 CNS
SF-295 CNS = test system: SF-295 CNS
SF-539 CNS = test system: SF-539 CNS
SK-MEL-2 melanoma = test system: SK-MEL-2 melanoma
SK-MEL-28 melanoma = test system: SK-MEL-28 melanoma
SK-MEL-5 melanoma = test system: SK-MEL-5 melanoma
SK-OV-3 ovarian = test system: SK-OV-3 ovarian
SN12C renal = test system: SN12C renal
SNB-19 CNS = test system: SNB-19 CNS
SNB-75 CNS = test system: SNB-75 CNS
SR leukemia = test system: SR leukemia
SW-620 colon = test system: SW-620 colon
T-47D breast = test system: T-47D breast
TK-10 renal = test system: TK-10 renal
U251 CNS = test system: U251 CNS
UACC-257 melanoma = test system: UACC-257 melanoma
UACC-62 melanoma = test system: UACC-62 melanoma
UO-31 renal = test system: UO-31 renal

COc1cc2c3c(n(CCCNC4CCCCC4)c(=O)c2cc1OC)-c1cc2c(cc1C3=O)OCO2
GI50 (786-0 renal): 1.73 µM
TGI (786-0 renal): 3.19 µM
GI50 (A498 renal): 20.8 µM
TGI (A498 renal): 49.1 µM
GI50 (A549 NSCLC): 5.87 µM
TGI (A549 NSCLC): 18.5 µM
GI50 (ACHN renal): 8.95 µM
TGI (ACHN renal): 33.5 µM
GI50 (BT-549 breast): 15.2 µM
TGI (BT-549 breast): 31.9 µM
GI50 (CAKI-1 renal): 7.69 µM
TGI (CAKI-1 renal): 22.9 µM
GI50 (CCRF-CEM leukemia): 0.319 µM
TGI (CCRF-CEM leukemia): 13.7 µM
GI50 (COLO 205 colon): 8 µM
TGI (COLO 205 colon): > 54 µM
GI50 (DU-145 prostate): 1.83 µM
TGI (DU-145 prostate): 3.74 µM
GI50 (EKVX NSCLC): 14.3 µM
TGI (EKVX NSCLC): > 63.8 µM
GI50 (HCC-2998 colon): 3.69 µM
TGI (HCC-2998 colon): 8.34 µM
GI50 (HCT-116 colon): 1.59 µM
TGI (HCT-116 colon): 3.03 µM
GI50 (HCT-15 colon): 1.62 µM
TGI (HCT-15 colon): 3.21 µM
GI50 (HL-60(TB) leukemia): 1.62 µM
TGI (HL-60(TB) leukemia): 4.87 µM
GI50 (HOP-62 NSCLC): 15.8 µM
TGI (HOP-62 NSCLC): 43.3 µM
GI50 (HOP-92 NSCLC): 15.5 µM
TGI (HOP-92 NSCLC): 42 µM
GI50 (HS 578T breast): 49 µM
TGI (HS 578T breast): > 100 µM
GI50 (HT29 colon): 1.82 µM
TGI (HT29 colon): 3.66 µM
GI50 (IGROV1 ovarian): 15.4 µM
TGI (IGROV1 ovarian): > 100 µM
GI50 (KM12 colon): 11.7 µM
TGI (KM12 colon): > 59 µM
GI50 (LOX IMVI melanoma): 1.43 µM
TGI (LOX IMVI melanoma): 3 µM
GI50 (M14 melanoma): 18.3 µM
TGI (M14 melanoma): 39.2 µM
GI50 (MALME-3M melanoma): 14.4 µM
TGI (MALME-3M melanoma): 29.1 µM
GI50 (MCF7 breast): 1.2 µM
TGI (MCF7 breast): 2.84 µM
GI50 (MDA-MB-231 breast): 2.18 µM
TGI (MDA-MB-231 breast): 5.13 µM
GI50 (MDA-MB-435): 14.7 µM
TGI (MDA-MB-435): 34.3 µM
GI50 (MOLT-4 leukemia): 0.354 µM
TGI (MOLT-4 leukemia): 3.93 µM
GI50 (NCI-H226 lung): 24.8 µM
TGI (NCI-H226 lung): > 67 µM
GI50 (NCI-H23 lung): 1.86 µM
TGI (NCI-H23 lung): 4.22 µM
GI50 (NCI-H460 lung): 1.52 µM
TGI (NCI-H460 lung): 3.24 µM
GI50 (NCI-H522 lung): 10.8 µM
TGI (NCI-H522 lung): 59.2 µM
GI50 (NCI/ADR-RES ovarian): 1.78 µM
TGI (NCI/ADR-RES ovarian): 4.45 µM
GI50 (OVCAR-3 ovarian): 10.8 µM
TGI (OVCAR-3 ovarian): 33 µM
GI50 (OVCAR-4 ovarian): 10.9 µM
TGI (OVCAR-4 ovarian): 23.9 µM
GI50 (OVCAR-5 ovarian): 20.3 µM
TGI (OVCAR-5 ovarian): 48.4 µM
GI50 (OVCAR-8 ovarian): 18 µM
TGI (OVCAR-8 ovarian): 36.6 µM
GI50 (PC-3 prostate): 16.8 µM
TGI (PC-3 prostate): 85.6 µM
GI50 (RPMI-8226 leukemia): 1.82 µM
TGI (RPMI-8226 leukemia): 6.39 µM
GI50 (RXF 393 renal): 9.22 µM
TGI (RXF 393 renal): 37.8 µM
GI50 (SF-268 CNS): 9.87 µM
TGI (SF-268 CNS): > 69 µM
GI50 (SF-295 CNS): 12.1 µM
TGI (SF-295 CNS): > 58.1 µM
GI50 (SF-539 CNS): 4.57 µM
TGI (SF-539 CNS): 8.91 µM
GI50 (SK-MEL-2 melanoma): > 100 µM
TGI (SK-MEL-2 melanoma): > 100 µM
GI50 (SK-MEL-28 melanoma): 22.7 µM
TGI (SK-MEL-28 melanoma): > 55.7 µM
GI50 (SK-MEL-5 melanoma): 18.4 µM
TGI (SK-MEL-5 melanoma): 36.3 µM
GI50 (SK-OV-3 ovarian): 20.8 µM
TGI (SK-OV-3 ovarian): 51.1 µM
GI50 (SN12C renal): 18.2 µM
TGI (SN12C renal): > 57.8 µM
GI50 (SNB-19 CNS): 26.2 µM
TGI (SNB-19 CNS): > 76.5 µM
GI50 (SNB-75 CNS): 11.9 µM
TGI (SNB-75 CNS): 25.5 µM
GI50 (SR leukemia): 0.245 µM
TGI (SR leukemia): 4.17 µM
GI50 (SW-620 colon): 1.44 µM
TGI (SW-620 colon): 4.18 µM
GI50 (T-47D breast): 20.8 µM
TGI (T-47D breast): 61.4 µM
GI50 (TK-10 renal): 20.9 µM
TGI (TK-10 renal): 36.7 µM
GI50 (U251 CNS): 7.85 µM
TGI (U251 CNS): 51.6 µM
GI50 (UACC-257 melanoma): 18.9 µM
TGI (UACC-257 melanoma): 43 µM
GI50 (UACC-62 melanoma): 27 µM
TGI (UACC-62 melanoma): > 66.5 µM
GI50 (UO-31 renal): 13.3 µM
TGI (UO-31 renal): 27.3 µM
